Assay results as given in PubChem BioAssay AID330 (DTP/NCI, 2004).
Where “and” joins values, the source holds several entries; their conditions need not be identical. Equal values may be shown once. Inconclusive results and toxic doses are left out.

Test system: P388 leukemia ip, CD2F1 mice, survival T/C
Assay: NCI In Vivo Anticancer Drug Screen. Data for tumor model P388 Leukemia (intraperitoneal) in CD2F1 (CDF1) mice
Details: endpoint: median survival time, higher = longer survival
Outline: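 Mice carrying the transplanted tumor received test compound or vehicle. Survival was recorded in each group, and the value is the treated-group measurement divided by that of the vehicle-treated control group.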

[1] = dose: 50.0 mg/kg/injection, schedule: Q01DX005 (ip), vehicle: saline with Tween-80
[2] = dose: 100.0 mg/kg/injection, schedule: Q01DX005 (ip), vehicle: saline with Tween-80
[3] = dose: 200.0 mg/kg/injection, schedule: Q01DX005 (ip), vehicle: saline with Tween-80
[4] = dose: 400.0 mg/kg/injection, schedule: Q04DX003 (ip), vehicle: saline with Tween-80
[5] = dose: 100.0 mg/kg/injection, schedule: Q04DX003 (ip), vehicle: saline with Tween-80
[6] = dose: 200.0 mg/kg/injection, schedule: Q04DX003 (ip), vehicle: saline with Tween-80
[7] = dose: 50.0 mg/kg/injection, schedule: Q01DX009 (ip), vehicle: saline
[8] = dose: 100.0 mg/kg/injection, schedule: Q01DX009 (ip), vehicle: saline
[9] = dose: 200.0 mg/kg/injection, schedule: Q01DX009 (ip), vehicle: saline

COc1ccc(N=C(C)C2C(=O)c3ccccc3C2=O)cc1
T/C (dose: 50.0 mg/kg/injection, schedule: Q01DX005 (ip), vehicle: DMSO): 100 % of control | T/C [1]: 113 % of control | T/C (dose: 100.0 mg/kg/injection, schedule: Q01DX005 (ip), vehicle: DMSO): 102 % of control | T/C [2]: 104 % of control | T/C (dose: 200.0 mg/kg/injection, schedule: Q01DX005 (ip), vehicle: DMSO): 102 % of control | T/C [3]: 95 % of control | T/C (dose: 400.0 mg/kg/injection, schedule: Q01DX005 (ip), vehicle: DMSO): 117 % of control | T/C (dose: 800.0 mg/kg/injection, schedule: Q01DX005 (ip), vehicle: DMSO): 99 % of control

CS(=O)(=O)Nc1ccc(Nc2c3ccccc3nc3cc(Cl)ccc23)cc1
T/C (dose: 100.0 mg/kg/injection, schedule: Q04DX003 (ip), vehicle: saline): 181 % of control | T/C (dose: 200.0 mg/kg/injection, schedule: Q04DX003 (ip), vehicle: saline): 240 % of control

COC(=O)c1ccc(C(=O)OC)c2nc3ccccc3nc12
T/C (dose: 60.0 mg/kg/injection, schedule: Q01DX005 (ip), vehicle: Klucel (hydroxypropylcellulose) (HPC)): 97 % of control | T/C (dose: 120.0 mg/kg/injection, schedule: Q01DX005 (ip), vehicle: Klucel (hydroxypropylcellulose) (HPC)): 100 % of control

N#CC(=O)c1ccccc1
T/C (dose: 3.12 mg/kg/injection, schedule: Q04DX003 (ip), vehicle: saline with Tween-80): 101 % of control | T/C (dose: 6.25 mg/kg/injection, schedule: Q04DX003 (ip), vehicle: saline with Tween-80): 100 % of control | T/C (dose: 12.5 mg/kg/injection, schedule: Q04DX003 (ip), vehicle: saline with Tween-80): 103 % of control and 105 % of control | T/C [4]: 101 % of control

C=C(CCCC)[Se]c1ccccc1
T/C (dose: 25.0 mg/kg/injection, schedule: Q01DX009 (ip), vehicle: saline with Tween-80): 103 % of control and 107 % of control | T/C (dose: 50.0 mg/kg/injection, schedule: Q01DX009 (ip), vehicle: saline with Tween-80): 107 % of control and 95 % of control | T/C (dose: 100.0 mg/kg/injection, schedule: Q01DX009 (ip), vehicle: saline with Tween-80): 101 % of control and 117 % of control

CCOC(=O)C(=CC(CC)(C(=O)OCC)C(=O)OCC)C(=O)OCC
T/C [5]: 110 % of control | T/C [6]: 110 % of control | T/C (dose: 300.0 mg/kg/injection, schedule: Q04DX003 (ip), vehicle: saline): 109 % of control | T/C (dose: 450.0 mg/kg/injection, schedule: Q04DX003 (ip), vehicle: saline): 100 % of control | T/C (dose: 600.0 mg/kg/injection, schedule: Q04DX003 (ip), vehicle: saline): 109 % of control

CC1(C)[C@H]2Cc3c(ccc4c3C(=O)OC4=O)[C@@H]1C2
T/C (dose: 50.0 mg/kg/injection, schedule: Q01DX005 (ip), vehicle: Klucel + Tween-80): 107 % of control | T/C (dose: 100.0 mg/kg/injection, schedule: Q01DX005 (ip), vehicle: Klucel + Tween-80): 112 % of control

COC(=O)NC1C(=O)OC(C2OC2(C)C)C1(C)C (configuration not stated)
T/C (dose: 60.0 mg/kg/injection, schedule: Q01DX005 (ip), vehicle: saline with Tween-80): 101 % of control and 100 % of control | T/C (dose: 120.0 mg/kg/injection, schedule: Q01DX005 (ip), vehicle: saline with Tween-80): 101 % of control and 99 % of control | T/C (dose: 240.0 mg/kg/injection, schedule: Q01DX005 (ip), vehicle: saline with Tween-80): 100 % of control and 99 % of control

N#CCC1(C#N)CCC(OCc2ccccc2)CC1 (configuration not stated)
T/C [7]: 100 % of control and 99 % of control | T/C [8]: 100 % of control | T/C [9]: 102 % of control and 101 % of control

COc1ccc(C(=O)Nc2ccccc2-c2ccccc2)cc1OC
T/C [1]: 105 % of control | T/C [2]: 97 % of control | T/C [3]: 103 % of control

CCNC1=C(C(=O)c2ccccc2)CCC1
T/C [7]: 109 % of control | T/C [8]: 104 % of control | T/C [9]: 109 % of control

COc1ccc(-c2cc(-c3cc(-c4ccc(OC)cc4)nc(N)n3)nc(N)n2)cc1
T/C (dose: 60.0 mg/kg/injection, schedule: Q01DX005 (ip), vehicle: saline): 105 % of control | T/C (dose: 120.0 mg/kg/injection, schedule: Q01DX005 (ip), vehicle: saline): 102 % of control | T/C (dose: 240.0 mg/kg/injection, schedule: Q01DX005 (ip), vehicle: saline): 105 % of control

CCOC(=O)N1N=C(c2ccccc2)OC2(N3CCOCC3)CCC(C(C)(C)C)CC12 (configuration not stated)
T/C (dose: 50.0 mg/kg/injection, schedule: Q01DX005 (ip), vehicle: Klucel (hydroxypropylcellulose) (HPC)): 100 % of control | T/C (dose: 100.0 mg/kg/injection, schedule: Q01DX005 (ip), vehicle: Klucel (hydroxypropylcellulose) (HPC)): 101 % of control | T/C (dose: 200.0 mg/kg/injection, schedule: Q01DX005 (ip), vehicle: Klucel (hydroxypropylcellulose) (HPC)): 97 % of control

CC(=O)NC(Cc1cnc[nH]1)C(=O)O (configuration not stated)
T/C [5]: 98 % of control | T/C [6]: 99 % of control | T/C [4]: 100 % of control
